Source: PubChem BioAssay (NCI)
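Five compound concentrations were applied to cells in 96-well plates for 48 hours; endpoints were derived by simple linear interpolation of the resulting dose-response curve. The concentration for 50% growth inhibition is given as GI50. At the TGI there is no net growth.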

How the values were obtained:
Assay in all cases: DTP human tumour cell line panel, 48 h
SW-620 colon = tested on: SW-620 colon
MOLT-4 leukemia = tested on: MOLT-4 leukemia
UACC-62 melanoma = tested on: UACC-62 melanoma
HOP-62 NSCLC = tested on: HOP-62 NSCLC
786-0 renal = tested on: 786-0 renal
HS 578T breast = tested on: HS 578T breast
CAKI-1 renal = tested on: CAKI-1 renal
OVCAR-3 ovarian = tested on: OVCAR-3 ovarian
HCT-116 colon = tested on: HCT-116 colon
PC-3 prostate = tested on: PC-3 prostate
HCC-2998 colon = tested on: HCC-2998 colon
KM12 colon = tested on: KM12 colon
A498 renal = tested on: A498 renal
CCRF-CEM leukemia = tested on: CCRF-CEM leukemia
SN12C renal = tested on: SN12C renal
SF-295 CNS = tested on: SF-295 CNS
LOX IMVI melanoma = tested on: LOX IMVI melanoma
RXF 393 renal = tested on: RXF 393 renal
U251 CNS = tested on: U251 CNS
SNB-75 CNS = tested on: SNB-75 CNS
OVCAR-8 ovarian = tested on: OVCAR-8 ovarian
MDA-MB-435 = tested on: MDA-MB-435
A549 NSCLC = tested on: A549 NSCLC
SNB-19 CNS = tested on: SNB-19 CNS
UACC-257 melanoma = tested on: UACC-257 melanoma
NCI-H460 lung = tested on: NCI-H460 lung
COLO 205 colon = tested on: COLO 205 colon
OVCAR-5 ovarian = tested on: OVCAR-5 ovarian
M14 melanoma = tested on: M14 melanoma
K-562 leukemia = tested on: K-562 leukemia
NCI-H226 lung = tested on: NCI-H226 lung
HCT-15 colon = tested on: HCT-15 colon
SF-539 CNS = tested on: SF-539 CNS
RPMI-8226 leukemia = tested on: RPMI-8226 leukemia
SK-OV-3 ovarian = tested on: SK-OV-3 ovarian
MCF7 breast = tested on: MCF7 breast
NCI-H23 lung = tested on: NCI-H23 lung
OVCAR-4 ovarian = tested on: OVCAR-4 ovarian
BT-549 breast = tested on: BT-549 breast
NCI-H522 lung = tested on: NCI-H522 lung
SR leukemia = tested on: SR leukemia
UO-31 renal = tested on: UO-31 renal
SK-MEL-2 melanoma = tested on: SK-MEL-2 melanoma
IGROV1 ovarian = tested on: IGROV1 ovarian
TK-10 renal = tested on: TK-10 renal
MDA-MB-468 breast = tested on: MDA-MB-468 breast
SK-MEL-5 melanoma = tested on: SK-MEL-5 melanoma
HT29 colon = tested on: HT29 colon
SF-268 CNS = tested on: SF-268 CNS
HL-60(TB) leukemia = tested on: HL-60(TB) leukemia

`O=C1NC(=NC23CC4CC(CC(C4)C2)C3)N/C1=C\c1ccc2ncsc2c1` was tested, and the GI50 (SW-620 colon) was 1.81 µM, the TGI (SW-620 colon) was greater than 100 µM and the GI50 (MOLT-4 leukemia) was 1.65 µM. It also gave a TGI (MOLT-4 leukemia) greater than 100 µM, a GI50 (UACC-62 melanoma) of 3.11 µM and a TGI (UACC-62 melanoma) greater than 100 µM. It also gave a GI50 (HOP-62 NSCLC) of 3.35 µM, a TGI (HOP-62 NSCLC) greater than 100 µM and a GI50 (786-0 renal) of 3.05 µM. The TGI (786-0 renal) was greater than 100 µM, the GI50 (HS 578T breast) was 2.73 µM and the TGI (HS 578T breast) was 8.13 µM. The GI50 (CAKI-1 renal) was 1.33 µM, the TGI (CAKI-1 renal) was greater than 100 µM and the GI50 (OVCAR-3 ovarian) was 1.74 µM. For the same molecule, the TGI (OVCAR-3 ovarian) was 6.73 µM, the GI50 (HCT-116 colon) was 0.323 µM and the TGI (HCT-116 colon) was greater than 100 µM. For the same molecule, the GI50 (PC-3 prostate) was 3.29 µM, the TGI (PC-3 prostate) was greater than 100 µM and the GI50 (HCC-2998 colon) was 3.32 µM. The TGI (HCC-2998 colon) was greater than 100 µM, the GI50 (KM12 colon) was 1.8 µM and the TGI (KM12 colon) was greater than 100 µM. For the same molecule, the GI50 (A498 renal) was 2.7 µM, the TGI (A498 renal) was 7.79 µM and the GI50 (CCRF-CEM leukemia) was 1.12 µM. The TGI (CCRF-CEM leukemia) was 5.96 µM, the GI50 (SN12C renal) was 0.842 µM and the TGI (SN12C renal) was greater than 100 µM. It also gave a GI50 (SF-295 CNS) of 3.4 µM, a TGI (SF-295 CNS) greater than 100 µM and a GI50 (LOX IMVI melanoma) of 0.928 µM. It also gave a TGI (LOX IMVI melanoma) greater than 100 µM, a GI50 (RXF 393 renal) of 2.01 µM and a TGI (RXF 393 renal) of 4.21 µM. The GI50 (U251 CNS) was 1.79 µM, the TGI (U251 CNS) was greater than 100 µM and the GI50 (SNB-75 CNS) was 1.62 µM. It also gave a TGI (SNB-75 CNS) of 4.29 µM, a GI50 (OVCAR-8 ovarian) of 1.68 µM and a TGI (OVCAR-8 ovarian) greater than 100 µM. The GI50 (MDA-MB-435) was 3.11 µM, the TGI (MDA-MB-435) was greater than 100 µM and the GI50 (A549 NSCLC) was 1.19 µM. It also gave a TGI (A549 NSCLC) greater than 100 µM, a GI50 (SNB-19 CNS) of 3.58 µM and a TGI (SNB-19 CNS) greater than 100 µM. For the same molecule, the GI50 (UACC-257 melanoma) was 4.11 µM, the TGI (UACC-257 melanoma) was greater than 100 µM and the GI50 (NCI-H460 lung) was 0.538 µM. The TGI (NCI-H460 lung) was greater than 100 µM, the GI50 (COLO 205 colon) was 1.8 µM and the TGI (COLO 205 colon) was 6.77 µM. For the same molecule, the GI50 (OVCAR-5 ovarian) was 2.45 µM, the TGI (OVCAR-5 ovarian) was greater than 100 µM and the GI50 (M14 melanoma) was 2.42 µM. For the same molecule, the TGI (M14 melanoma) was greater than 100 µM, the GI50 (K-562 leukemia) was 0.762 µM and the TGI (K-562 leukemia) was greater than 100 µM. For the same molecule, the GI50 (NCI-H226 lung) was 1.43 µM, the TGI (NCI-H226 lung) was greater than 100 µM and the GI50 (HCT-15 colon) was 0.663 µM. It also gave a TGI (HCT-15 colon) greater than 100 µM, a GI50 (SF-539 CNS) of 0.432 µM and a TGI (SF-539 CNS) of 3.06 µM. The GI50 (RPMI-8226 leukemia) was 1.2 µM, the TGI (RPMI-8226 leukemia) was 5.14 µM and the GI50 (SK-OV-3 ovarian) was 5.47 µM. For the same molecule, the TGI (SK-OV-3 ovarian) was greater than 100 µM, the GI50 (MCF7 breast) was 1.37 µM and the TGI (MCF7 breast) was greater than 100 µM. It also gave a GI50 (NCI-H23 lung) of 1.58 µM, a TGI (NCI-H23 lung) of 7.36 µM and a GI50 (OVCAR-4 ovarian) of 3.2 µM. The TGI (OVCAR-4 ovarian) was greater than 100 µM, the GI50 (BT-549 breast) was 1.63 µM and the TGI (BT-549 breast) was 7 µM. It also gave a GI50 (NCI-H522 lung) of 0.168 µM, a TGI (NCI-H522 lung) of 4.79 µM and a GI50 (SR leukemia) of 0.17 µM. The TGI (SR leukemia) was 1.24 µM, the GI50 (UO-31 renal) was 2.96 µM and the TGI (UO-31 renal) was 8.04 µM. The GI50 (SK-MEL-2 melanoma) was 0.933 µM, the TGI (SK-MEL-2 melanoma) was 3.13 µM and the GI50 (IGROV1 ovarian) was 2.58 µM. It also gave a TGI (IGROV1 ovarian) greater than 100 µM, a GI50 (TK-10 renal) of 2.87 µM and a TGI (TK-10 renal) greater than 100 µM. For the same molecule, the GI50 (MDA-MB-468 breast) was 1.24 µM, the TGI (MDA-MB-468 breast) was 3.67 µM and the GI50 (SK-MEL-5 melanoma) was 0.899 µM. For the same molecule, the TGI (SK-MEL-5 melanoma) was 5.56 µM, the GI50 (HT29 colon) was 3.09 µM and the TGI (HT29 colon) was greater than 100 µM. For the same molecule, the GI50 (SF-268 CNS) was 2.23 µM, the TGI (SF-268 CNS) was 6.58 µM and the GI50 (HL-60(TB) leukemia) was 1.63 µM. For the same molecule, the TGI (HL-60(TB) leukemia) was 5.25 µM.
